Laboratory results from ChEMBL document CHEMBL1697731, “Cheminformatics analysis of assertions mined from literature that describe drug-induced liver injury in different species” (Chem Res Toxicol, 2010).
*1 amine or outer side, *2 acyl side, *3 side chain or, on linkers, in order; H or OH if unused. Where a SMILES comes first, the peptide text is derived from it. Bridges are numbered along the chain shown (N, C = ends). Roman numbers before positions name the chains, in order. [ ]: non-standard residue; d: D form. Actinocin(9to1) = Cc1c2oc3c(C)ccc(C(=O)[*:1])c3nc-2c(C(=O)[*:2])c(N)c1=O; NMeV = CN[C@H](C(=O)O)C(C)C; Sar = CNCC(=O)O

Key:
Hepatotoxicity [1] = experiment: Literature-mined compound from Fourches et al multi-species drug-induced liver injury (DILI) dataset, effect in humans; conditions: human
Hepatotoxicity [2] = experiment: Literature-mined compound from Fourches et al multi-species drug-induced liver injury (DILI) dataset, effect in rodents; conditions: rodentia
Hepatotoxicity [3] = experiment: Literature-mined compound from Fourches et al multi-species drug-induced liver injury (DILI) dataset, effect in non-rodents

| Structure (SMILES) | Hepatotoxicity (Hepatotoxicity [1]) | Hepatotoxicity (Hepatotoxicity [2]) | Hepatotoxicity (Hepatotoxicity [3]) | Hepatotoxicity (Hepatotoxicity [1]; Liver) | Hepatotoxicity (Hepatotoxicity [2]; Liver) | Hepatotoxicity (Hepatotoxicity [3]; Liver) |
| --- | --- | --- | --- | --- | --- | --- |
| Nc1ncnc2c1ncn2[C@@H]1O[C@H](CO)C[C@H]1O [CORDYCEPIN] | no drug-induced liver injury reported | drug-induced liver injury reported | no drug-induced liver injury reported | – | – | – |
| CC(=O)OCC(=O)[C@@]1(O)CC[C@H]2[C@@H]3CCC4=CC(=O)CC[C@]4(C)[C@H]3C(=O)C[C@@]21C [CORTISONE ACETATE] | no drug-induced liver injury reported | drug-induced liver injury reported | no drug-induced liver injury reported | – | – | – |
| CC1=C(CC(=O)NCc2ccccc2)c2cc(F)ccc2/C1=C\c1ccncc1.Cl [CP-461] | drug-induced liver injury reported | no drug-induced liver injury reported | no drug-induced liver injury reported | – | – | – |
| CN(CC(=O)O)C(=N)N [CREATINE] | no drug-induced liver injury reported | drug-induced liver injury reported | no drug-induced liver injury reported | – | – | – |
| COc1cc(/C=C/C(=O)CC(=O)/C=C/c2ccc(O)c(OC)c2)ccc1O [CURCUMIN] | drug-induced liver injury reported | drug-induced liver injury reported | no drug-induced liver injury reported | – | – | – |
| CC1CC(OC(=O)C(O)c2ccccc2)CC(C)(C)C1 (stereo not given) [CYCLANDELATE] | no drug-induced liver injury reported | drug-induced liver injury reported | no drug-induced liver injury reported | – | – | – |
| CCC1(C2=CCCCC2)C(=O)NC(=O)NC1=O [CYCLOBARBITAL] | no drug-induced liver injury reported | drug-induced liver injury reported | no drug-induced liver injury reported | – | – | – |
| CCC(C(=O)O)C1(O)CCCCC1 (stereo not given) [CYCLOBUTYROL] | no drug-induced liver injury reported | drug-induced liver injury reported | no drug-induced liver injury reported | – | – | – |
| CC1=C2C[C@H]3[C@@H](CC=C4C[C@@H](O)CC[C@@]43C)[C@@H]2CC[C@]12O[C@@H]1C[C@H](C)CN[C@H]1[C@H]2C [CYCLOPAMINE] | drug-induced liver injury reported | no drug-induced liver injury reported | no drug-induced liver injury reported | – | – | – |
| O=P1(N(CCCl)CCCl)NCCCO1 (stereo not given) [CYCLOPHOSPHAMIDE ANHYDROUS] | – | – | – | drug-induced liver injury reported | drug-induced liver injury reported | no drug-induced liver injury reported |
| O=C(/C=C/c1ccc(O)c(O)c1)O[C@@H]1C[C@@](OC(=O)/C=C/c2ccc(O)c(O)c2)(C(=O)O)C[C@@H](O)[C@@H]1O [CYNARIN] | no drug-induced liver injury reported | drug-induced liver injury reported | no drug-induced liver injury reported | – | – | – |
| CN1CCC(=C2c3ccccc3C=Cc3ccccc32)CC1 [CYPROHEPTADINE] | drug-induced liver injury reported | drug-induced liver injury reported | no drug-induced liver injury reported | – | – | – |
| CC(=O)O[C@]1(C(C)=O)CC[C@H]2[C@@H]3C=C(Cl)C4=CC(=O)[C@@H]5C[C@@H]5[C@]4(C)[C@H]3CC[C@@]21C [CYPROTERONE ACETATE] | drug-induced liver injury reported | drug-induced liver injury reported | no drug-induced liver injury reported | – | – | – |
| Nc1ccn([C@@H]2O[C@H](CO)[C@@H](O)[C@@H]2O)c(=O)n1 [CYTARABINE] | – | – | – | drug-induced liver injury reported | drug-induced liver injury reported | no drug-induced liver injury reported |
| CN(C)/N=N/c1[nH]cnc1C(N)=O [DACARBAZINE] | drug-induced liver injury reported | no drug-induced liver injury reported | no drug-induced liver injury reported | – | – | – |
| Cc1c2oc3c(C)ccc(C(=O)N[C@@H]4C(=O)N[C@H](C(C)C)C(=O)N5CCC[C@H]5C(=O)N(C)CC(=O)N(C)[C@@H](C(C)C)C(=O)O[C@@H]4C)c3nc-2c(C(=O)N[C@@H]2C(=O)N[C@H](C(C)C)C(=O)N3CCC[C@H]3C(=O)N(C)CC(=O)N(C)[C@@H](C(C)C)C(=O)O[C@@H]2C)c(N)c1=O [DACTINOMYCIN] (I: T[dV]P[Sar][NMeV] / II: T[dV]P[Sar][NMeV]; ester I:1-I:C, II:1-II:C; linker I:N-II:N via Actinocin(9to1)) | drug-induced liver injury reported | drug-induced liver injury reported | drug-induced liver injury reported | – | – | – |
| C#C[C@]1(O)CC[C@H]2[C@@H]3CCC4=Cc5oncc5C[C@]4(C)[C@H]3CC[C@@]21C [DANAZOL] | drug-induced liver injury reported | no drug-induced liver injury reported | no drug-induced liver injury reported | – | – | – |
| O=C1c2cccc(O)c2C(=O)c2c(O)cccc21 [DANTHRON] | no drug-induced liver injury reported | drug-induced liver injury reported | no drug-induced liver injury reported | – | – | – |
| O=C1CN(/N=C/c2ccc(-c3ccc([N+](=O)[O-])cc3)o2)C(=O)[N-]1.[Na+] [DANTROLENE SODIUM] | no drug-induced liver injury reported | drug-induced liver injury reported | no drug-induced liver injury reported | – | – | – |
| Nc1ccc(S(=O)(=O)c2ccc(N)cc2)cc1 [DAPSONE] | – | – | – | drug-induced liver injury reported | no drug-induced liver injury reported | no drug-induced liver injury reported |
| COc1cccc2c1C(=O)c1c(O)c3c(c(O)c1C2=O)C[C@@](O)(C(C)=O)C[C@@H]3O[C@H]1C[C@H](N)[C@H](O)[C@H](C)O1 [DAUNORUBICIN] | drug-induced liver injury reported | drug-induced liver injury reported | no drug-induced liver injury reported | – | – | – |
| Nc1ncn([C@H]2C[C@H](O)[C@@H](CO)O2)c(=O)n1 [DECITABINE] | drug-induced liver injury reported | no drug-induced liver injury reported | no drug-induced liver injury reported | – | – | – |
| O=C(O)c1ccc(-n2nc(-c3ccccc3O)nc2-c2ccccc2O)cc1 [DEFERASIROX] | drug-induced liver injury reported | no drug-induced liver injury reported | no drug-induced liver injury reported | – | – | – |
| CC(=O)N(O)CCCCCNC(=O)CCC(=O)N(O)CCCCCNC(=O)CCC(=O)N(O)CCCCCN [DEFEROXAMINE] | drug-induced liver injury reported | drug-induced liver injury reported | drug-induced liver injury reported | – | – | – |
| C[C@H](CCC(=O)O)[C@H]1CC[C@H]2[C@@H]3C(=O)C[C@@H]4CC(=O)CC[C@]4(C)[C@H]3CC(=O)[C@]12C [DEHYDROCHOLIC ACID] | no drug-induced liver injury reported | drug-induced liver injury reported | no drug-induced liver injury reported | – | – | – |
